US12379386B2, “Antibodies to 25-hydroxyvitamin D2 and D3 for detecting total 25-hydroxyvitamin D” (Siemens Healthcare Diagnostics Inc., priority 2011, dated 2025)
Several values for one entry are separate records, joined by “and”; a condition that tells them apart may be missing. Equal values may be shown once.

How the values were obtained:
[1] = test system: anti 25-hydroxy Vitamin D monoclonal antibody labeled with acridinium ester (monoclonal antibody 10H9); assay: Cross-reactivity in ADVIA Centaur Vitamin D Total assay; format: binding, mouse
Description: Biological sample is added to a reaction cuvette followed by displacement buffer and allowed to react for 4.5 minutes. Monoclonal antibody conjugated to acridinium ester is added and allowed to react for 5.5 minutes to bind 25-hydroxyvitamin D in the sample. […] The reaction cuvette is washed, and acid and base reagents are added to initiate the chemiluminescent reaction. The time-to-result is 18 minutes. An inverse relationship exists between the amount of 25-hydroxyvitamin D in the patient sample and the amount of relative light units (RLUs) detected by the system.
Assay: The ADVIA Centaur Vitamin D Total assay is a one-pass, 18-minute antibody competitive immunoassay that uses an antifluorescein-labeled monoclonal antibody covalently bound to paramagnetic particles (PMPs), one monoclonal antibody labeled with acridinium ester (AE), and a vitamin D analog labeled with fluorescein (FIG. 8). The Vitamin D Total assay requires 20 μL of sample volume for a single determination. The time-to-first-result is 18 minutes and the throughput is 240 tests/hour.
Briefly, the first step of the sequential step hapten/antibody competitive immunoassay using chemiluminescent technology begins with the analyzer dispensing 20 μL of biological sample into a cuvette followed by addition of 200 μl of displacement buffer (50 mM HEPES, 150 mM NaCl, 0.09% sodium azide, pH=7.5) containing 8-anilino-1-naphthalenesulfonic acid ammonium salt (Sigma-aldrich, St. Louis, MO) and ethylene glycol (Sigma-aldrich, St. Louis, MO) and incubation for 4.5 minutes at 37° C. Lite Reagent (50 μL) containing an anti 25-hydroxy Vitamin D monoclonal antibody labeled with acridinium ester (monoclonal antibody 10H9) is added to the mixture and incubated for 5.5 min at 37° C. C22-PEG-BSA-fluorescein conjugate (50 μL) and anti-fluorescein monoclonal antibody coated paramagnetic microparticles (100 μL) are added to the mixture and incubated for 3.75 minutes at 37° C. The fourth step is separation of Solid Phase complex with bound C22-PEG-BSA-fluorescein conjugate and anti 25-hydroxy vitamin D monoclonal antibody labeled with acridinium ester, followed by washing three times to remove any free Lite Reagent. Last is the sequential dispensing of 300 μL each of acid reagent then base reagent to initiate the chemiluminescent reaction. The total incubation time from sample to result is 18 minutes. There is an indirect relationship between the amount of 25-hydroxy vitamin D present in the biological sample and the amount of chemiluminescence quantified as relative light units (RLUs). In the Centaur-based assay, there is an inverse relationship between RLUs emitted by the acridinium ester and the amount of vitamin D because the 25-hydroxyvitamin D released from the carrier protein in the plasma competes with the Vitamin D-BSA-Fluorescein for binding with a limited amount of the acridinium-labeled 10H9 monoclonal antibody. Higher levels of 25(OH)D in the patient sample would lower the amount of the acridinium-MAb-VitD-BSA-Fluorescein complex on the magnetic particles resulting in lower RLUs.
Cross-reactivity: Five vitamin D derivatives were analyzed using the ADVIA Centaur Vitamin D Total assay. The vitamin D derivatives were spiked into a sample containing 27 ng/mL of vitamin D total. Three replicates of the spiked samples were assayed and the vitamin D total concentration determined.

[2] = test system: BALB/c mice; assay: ELISA of sera from mice immunized with vitamin D-C22 BSA; format: in vivo, mouse; settings: coat Vit D C22 Lc-BSA 500 ng/mL, individual mice 0-4 in c3-c7
Description: Experiments were conducted to produce antibodies that could preferentially bind to molecules having structural aspects of the vitamin D-C22 antigenic molecule. These experiments were conducted in accordance with the method of Galfre et al. (Nature, 266:550 (1977)), as modified by Oi and Herzenberg (Selected Methods in Cellular Immunology (1980)). Initially, BALB/c mice were immunized with vitamin D-C22 BSA emulsified in Freund's Complete adjuvant followed by a secondary immunization using Freund's Incomplete adjuvant. Sera of immunized mice were collected two weeks after the secondary immunization.
Collected sera were tested for antigen reactivity by ELISA as follows: microtiter plates coated with vitamin D-C22 BSA were incubated with mouse antisera, diluted in dilution buffer, for one hour. Plates were washed and a secondary antibody (goat-anti-mouse IgG) conjugated to horseradish peroxidase (HRPO) in dilution buffer was added and incubated for 30 minutes. Plates were washed and the colorimetric substrate 3,3′,5,5′-tetramethylbenzidine (TMB) was added. The generated color was stopped using 1N sulfuric acid and the optical density was measured at 450 nm.

[3] = crossreactant 100 ng/mL spiked, expected (endogenous) vitamin D total 27 ng/mL

## C=C1CC[C@@H](O)C/C1=C/C=C1\CCC[C@]2(C)[C@@H]([C@H](C)CCCC(C)(C)O)CC[C@@H]12 [3-epi-25(OH)D3]
[1]
  Cross-reactivity (in words): very low cross-reactivity
[1]; [3]
  Cross-reactivity: 0.0%

## C=C1CC[C@H](O)C/C1=C/C=C1\CCC[C@]2(C)[C@@H]([C@H](C)/C=C/[C@H](C)C(C)(C)O)CC[C@@H]12 [25-(OH)-Vit D2, 25-hydroxyvitamin D2]
[1]; at 50 ng/mL
  Cross-reactivity: 105%
[1]; crossreactant 30 ng/mL spiked, expected (endogenous) vitamin D total 27 ng/mL
  Cross-reactivity: 102%

## C=C1CC[C@H](O)C/C1=C/C=C1\CCC[C@]2(C)[C@@H]([C@H](C)CCCC(C)(C)O)CC[C@@H]12 [25-(OH)-Vit D3, 25-hydroxyvitamin D3]
[1]; crossreactant 27 ng/mL, expected (endogenous) vitamin D total 0 ng/mL
  Cross-reactivity: 100%

## C=C1CC[C@H](O)C/C1=C/C=C1\CCC[C@]2(C)[C@@H]([C@H](C)/C=C/[C@H](C)C(C)C)CC[C@@H]12 [Vitamin D2]
[1]
  Cross-reactivity (in words): very low cross-reactivity
[1]; [3]
  Cross-reactivity: 0.04%

## C=C1CC[C@H](O)C/C1=C/C=C1\CCC[C@]2(C)[C@@H]([C@H](C)CCCC(C)C)CC[C@@H]12 [Vitamin D3]
[1]
  Cross-reactivity (in words): very low cross-reactivity
[1]; [3]
  Cross-reactivity: 0.04%

## vitamin D-C22 diaminobutane-suberoyl-BSA [Vit D C22]
[2]; serum dilution 1:100
  optical density at 450 nm: 3.747 and 3.687 and 3.625 and 3.700 and 3.652
[2]; serum dilution 1:200
  optical density at 450 nm: 3.750 and 3.693 and 3.649 and 3.663 and 3.634
[2]; serum dilution 1:400
  optical density at 450 nm: 3.602 and 3.640 and 3.633 (2×) and 3.441
[2]; serum dilution 1:800
  optical density at 450 nm: 3.634 and 3.731 and 3.603 and 3.708 and 3.696
[2]; serum dilution 1:1600
  optical density at 450 nm: 3.578 and 3.605 and 3.532 and 3.638 and 3.687
[2]; serum dilution 1:3200
  optical density at 450 nm: 3.534 and 3.508 and 3.171 and 3.454 and 3.608
[2]; serum dilution 1:6400
  optical density at 450 nm: 3.177 and 3.133 and 2.533 and 3.057 and 3.473
[2]; serum dilution 1:12800
  optical density at 450 nm: 2.449 and 2.406 and 1.731 and 2.325 and 3.042
